Experiments:
[1] = Human microsome stability assay; assay type: in vitro ADME; settings: for Clearance of Human microsome: 1 μM test compound, 0.5 mg/mL liver microsomal protein, 37° C.
Description: The human microsomal stability assay is used for early assessment of metabolic stability of a test compound in human liver microsomes.
Human liver microsomes (Cat. NO.: 452117, Corning, USA; Cat. NO.:H2610, Xenotech, USA) were preincubated with test compound for 10 minutes at 37° C. in 100 mM potassium phosphate buffer, pH 7.4. The reactions were initiated by adding NADPH regenerating system.
The final incubation mixtures contained 1 μM test compound, 0.5 mg/mL liver microsomal protein, 1 mM MgCl2, 1 mM NADP, 1 unit/mL isocitric dehydrogenase and 6 mM isocitric acid in 100 mM potassium phosphate buffer, pH 7.4. After incubation times of 0, 3, 6, 9, 15 and 30 minutes at 37° C., 300 μL of cold acetonitrile (including internal standard) was added to 100 μL incubation mixture to terminate the reaction. Following precipitation and centrifugation, the amount of compound remaining in the samples were determined by LC-MS/MS. Controls of no NADPH regenerating system at zero and 30 minutes were also prepared and analyzed.

hERG K+ channel = target: T1, hERG K+ channel (Homo sapiens, UniProt Q12809); experiment: hERG channel inhibition assay (patch-clamp, CHO-hERG cells); assay type: cell-based; settings: for IC50 / IC20: CHO-hERG cells, whole-cell patch-clamp; for IC20: human, CHO cells stably expressing hERG; for hERG IC20/TLR7 IC50 / hERG IC20/TLR8 IC50 / hERG IC20/TLR9 IC50: safety ratio
T1 construct: expressed in transfected cells; host or cells: CHO (Chinese hamster ovary)
Description: The hERG K^+ channels were cloned in humans and stably expressed in a CHO (Chinese hamster ovary) cell line. CHOhERG cells were used for patch-clamp (voltage-clamp, whole-cell) experiments. Cells were stimulated by a voltage pattern to activate hERG channels and conduct IKhERG Currents (rapid delayed outward rectifier potassium current of the hERG channel). After the cells were stabilized for a few minutes, the amplitude and kinetics of IKhERG were recorded at a stimulation frequency of 0.1 Hz (6 bpm). Thereafter, the test compound was added to the preparation at increasing concentrations. For each concentration, an attempt was made to reach a steady-state effect, usually, this was achieved within 3-10 min at which time the next highest concentration was applied. The amplitude and kinetics of IKhERG are recorded in each concentration of the drug which were compared to the control values (taken as 100%). (references: Redfe W S, Carlsson L, Davis A S, Lynch W G, MacKenzie I, Palethorpe S, Siegl P K, Strang I, Sullivan A T, Wallis R, Camm A J, Hammond T G. 2003; Relationships between preclinical cardiac electrophysiology, clinical QT interval prolongation and torsade de pointes for a broad range of drugs: evidence for a provisional safety margin in drug development. Cardiovasc. Res. 58:32-45, Sanguinetti M C, Tristani-Firouzi M. 2006; hERG potassium channels and cardiac arrhythmia. Nature 440:463-469, Webster R, Leishman D, Walker D. 2002; Towards a drug concentration effect relationship for QT prolongation and torsades de pointes. Curr. Opin. Drug Discov. Devel. 5:116-26).

TLR9 [2] = target: T2, TLR9 (Homo sapiens, UniProt Q9NR96); experiment: Human PBMC cell-based assay; parameters: These cells express TLR7, TLR8, or TLR9, and therefore are natural responders to respective ligand stimulation; endogenous in cells; host or cells: human PBMC from healthy donor whole blood; settings: CpG ODN 2216 at 1 μM, read-out: hPBMC/TLR9 IC50
T2 sequence (Q9NR96 26-1032): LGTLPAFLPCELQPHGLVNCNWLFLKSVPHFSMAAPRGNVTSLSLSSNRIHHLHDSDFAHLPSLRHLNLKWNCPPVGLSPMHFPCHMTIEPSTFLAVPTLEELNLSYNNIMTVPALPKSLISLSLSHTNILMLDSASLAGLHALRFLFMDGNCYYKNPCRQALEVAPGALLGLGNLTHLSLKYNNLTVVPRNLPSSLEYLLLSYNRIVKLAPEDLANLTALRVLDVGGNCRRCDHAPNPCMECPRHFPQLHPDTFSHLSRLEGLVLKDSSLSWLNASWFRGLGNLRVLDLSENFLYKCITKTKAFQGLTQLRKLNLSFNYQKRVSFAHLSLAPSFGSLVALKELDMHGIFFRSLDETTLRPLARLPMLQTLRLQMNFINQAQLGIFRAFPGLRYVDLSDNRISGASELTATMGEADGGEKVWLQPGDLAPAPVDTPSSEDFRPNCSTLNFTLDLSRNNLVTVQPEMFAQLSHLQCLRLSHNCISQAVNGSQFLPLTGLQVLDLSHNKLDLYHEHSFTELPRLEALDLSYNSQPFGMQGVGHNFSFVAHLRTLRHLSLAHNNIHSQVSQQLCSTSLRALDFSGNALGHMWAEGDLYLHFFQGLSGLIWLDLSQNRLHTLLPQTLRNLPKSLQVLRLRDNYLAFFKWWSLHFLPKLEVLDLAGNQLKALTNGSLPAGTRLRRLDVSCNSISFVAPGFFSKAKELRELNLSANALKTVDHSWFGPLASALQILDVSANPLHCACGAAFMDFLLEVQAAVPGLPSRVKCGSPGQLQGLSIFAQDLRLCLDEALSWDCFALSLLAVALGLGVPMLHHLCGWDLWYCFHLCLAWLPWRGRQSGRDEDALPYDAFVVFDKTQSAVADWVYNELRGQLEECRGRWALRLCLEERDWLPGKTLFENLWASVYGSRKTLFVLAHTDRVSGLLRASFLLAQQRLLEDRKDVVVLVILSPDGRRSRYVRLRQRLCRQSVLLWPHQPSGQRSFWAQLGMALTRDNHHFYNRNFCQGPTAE
Excerpt: Unlike the HEK reporter cell lines, human peripheral blood mononuclear cell (PBMC) represents primary human immune cells in blood mainly consisting of lymphocytes, monocytes, and dendritic cells. These cells express TLR7, TLR8, or TLR9, and therefore are natural responders to respective ligand stimulation. Upon activation of these TLRs, PBMCs secrete similar cytokines and chemokines in vitro and in vivo, and therefore the in vitro potency of a TLR7/8/9 antagonist in human PBMC is readily translatable to its pharmacodynamics response in vivo.
Human peripheral blood mononuclear cells (PBMC) were isolated from freshly-drawn lithium-heparinized (Lithium Heparin Plus blood Collection tube, BD Vacutainer®) healthy donor whole blood by density gradient (Ficoll-Paque™ PLUS, GE Healthcare life Sciences). Briefly, […] was diluted with 25 mL PBS (without Ca^2+, Mg^2+) in a 50 mL conical tube with porous barrier (Leucosep tube, Greiner bio-one), where 15.5 mL Ficoll-Paque was under laid after spinning. Tubes were centrifuged for 20 minutes at 800×g (1946 rpm) with the brake in the off position, and PBMC were collected from the buffy coat. Cells were then washed twice in PBS, and red blood cells were lysed by suspension in 2 mL (Red Blood Cell Lysis Buffer, Alfa Aesar) for 5-10 minutes at room temperature. After a final wash in PBS, PBMC were resuspended at a final concentration of 2×10^6 cells/mL in RPMI-1640 media with GlutaMAX™ (Gibco) supplemented with 10% Fetal Bovine Serum (Sigma) and plated at 150 μL/well (3×10^5 cells/well) in tissue culture treated round bottom 96-well plates (Corning Incorporated). Antagonist compounds (compounds of this invention) solubilized and serial diluted in 100% DMSO were added in duplicate to cells to yield a final concentration of 1% DMSO (v/v). PBMC were incubated with antagonist compounds for 30 minutes at 37° C., 5% CO2 before adding various TLR agonist reagents in 48 μL complete media per well as follows (final concentrations indicated): CpG ODN 2216 (InvivoGen) at 1 μM for TLR9, ORN 06/LyoVec (InvivoGen) at […] for TLR8 and R848 (InvivoGen) at 1 μg/mL for TLR7 and TLR8. PBMC were incubated overnight at 37° C. with 5% C02. Cell culture supernatants were collected, and levels of various human cytokines were assessed by Luminex assay (ProcartaPlex™ Multiplex Immunoassay, Invitrogen) or ELISA procedure according to the manufacturer's recommended protocol (eBioscience, ThermoFisher Scientific). Viability of the cells was also checked with Cell Viability Assay (CellTiter Glo® Luminescent Cell Viability Assay, Promega).

TLR9 [3] = target: T2, TLR9; experiment: TLR9 activity of Novartis WO2018047081 compounds (background comparison)

T1 sequence (Q12809 whole entry): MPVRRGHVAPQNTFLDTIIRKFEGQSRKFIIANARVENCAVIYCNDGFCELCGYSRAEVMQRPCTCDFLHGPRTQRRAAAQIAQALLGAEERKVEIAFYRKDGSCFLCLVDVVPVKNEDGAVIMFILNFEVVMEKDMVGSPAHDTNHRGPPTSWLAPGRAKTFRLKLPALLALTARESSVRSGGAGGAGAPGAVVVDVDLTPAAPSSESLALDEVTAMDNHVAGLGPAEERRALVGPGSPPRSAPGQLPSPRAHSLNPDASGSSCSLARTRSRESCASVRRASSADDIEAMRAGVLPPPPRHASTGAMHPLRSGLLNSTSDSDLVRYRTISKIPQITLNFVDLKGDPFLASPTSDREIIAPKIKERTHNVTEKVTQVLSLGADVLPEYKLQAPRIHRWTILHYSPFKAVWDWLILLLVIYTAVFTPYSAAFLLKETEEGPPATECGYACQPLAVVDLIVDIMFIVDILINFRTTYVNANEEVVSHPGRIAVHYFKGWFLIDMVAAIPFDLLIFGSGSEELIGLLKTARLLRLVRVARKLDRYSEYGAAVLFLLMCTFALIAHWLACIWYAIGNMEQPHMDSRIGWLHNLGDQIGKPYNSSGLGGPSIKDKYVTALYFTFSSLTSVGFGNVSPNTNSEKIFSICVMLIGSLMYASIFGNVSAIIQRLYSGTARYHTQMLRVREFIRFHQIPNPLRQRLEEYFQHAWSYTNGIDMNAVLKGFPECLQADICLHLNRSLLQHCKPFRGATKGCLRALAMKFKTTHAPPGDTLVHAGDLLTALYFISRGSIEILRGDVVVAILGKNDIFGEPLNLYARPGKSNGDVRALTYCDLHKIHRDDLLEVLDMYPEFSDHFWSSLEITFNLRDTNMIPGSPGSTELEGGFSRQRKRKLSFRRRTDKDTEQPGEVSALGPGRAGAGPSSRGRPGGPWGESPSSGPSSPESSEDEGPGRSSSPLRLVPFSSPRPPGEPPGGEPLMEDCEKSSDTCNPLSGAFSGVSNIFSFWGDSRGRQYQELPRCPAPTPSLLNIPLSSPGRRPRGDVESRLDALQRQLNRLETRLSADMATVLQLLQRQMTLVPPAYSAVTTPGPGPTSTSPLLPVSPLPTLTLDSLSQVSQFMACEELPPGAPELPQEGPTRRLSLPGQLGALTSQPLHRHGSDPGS

| Clearance of Human microsome [1] [mL/min/kg] | IC50 (TLR9 [2]) [µM] | human liver microsome stability (in words) [1] | TLR9 activity (in words) (TLR9 [3]) | SMILES | IC50 (hERG K+ channel) [µM] | IC20 (hERG K+ channel) [µM] | hERG IC20/TLR7 IC50 (hERG K+ channel) | hERG IC20/TLR8 IC50 (hERG K+ channel) | hERG IC20/TLR9 IC50 (hERG K+ channel) |
| --- | --- | --- | --- | --- | --- | --- | --- | --- | --- |
| 6.2 |  |  |  | C[C@@H]1CN(c2ccnc3c2cnn3C)CC[C@H]1c1ccc(N2CCNCC2)nc1 (relative stereo) [Example 19, 1-methyl-4-[trans-3-methyl-4-(6-piperazin-1-yl-3-pyridyl)-1-piperidyl]pyrazolo[3,4-b]pyridine] |  |  |  |  |  |
| 9.7 |  |  |  | Cc1cc(N2CCC(c3ncc(N4CCNCC4)nc3C)CC2)c2cnn(C)c2n1 [Example 12, 1,6-dimethyl-4-[4-(3-methyl-5-piperazin-1-yl-pyrazin-2-yl)-1-piperidyl]pyrazolo[3,4-b]pyridine] | > 20 | 7 | 205.9 | 233.3 | 15.5 |
|  | 0.78 |  |  | Cc1cc(N2CC[C@@H](c3ncc(N4CCNC5(CC5)C4)cc3C)[C@H](C)C2)c2cnn(C)c2n1 [Example 30, 4-[(3S,4R)-4-[5-(4,7-diazaspiro[2.5]octan-7-yl)-3-methyl-2-pyridyl]-3-methyl-1-piperidyl]-1,6-dimethyl-pyrazolo[3,4-b]pyridine] | > 10 | 4.9 | 544.4 | 350.0 | 11.6 |
| 16.3 |  | poor | much lower TLR9 activity | Cc1cc(N2CCc3c(c(C)nn3CC34CCC(NC(=O)[C@@H]5COCCN5)(CC3)CC4)C2)c2cnn(C)c2n1 [Example N8, reference compound] |  |  |  |  |  |
| 18.2 |  | poor | best TLR9 activity | Cc1cc(N2CCc3c(c(C)nn3CC34CCC(N(C)C5CCC5)(CC3)CC4)C2)c2cnn(C)c2n1 [Example N79, reference compound] |  |  |  |  |  |
